These results are taken from patent publication US7091202B2, “4-arylspirocycloalkyl-2-aminopyrimidine carboxamide KCNQ potassium channel modulators” (Bristol-Myers Squibb Company, priority 2004, dated 2006).

The target of one assay is T1, hQ23 (HEK-293 cell line stably transfected with one of the members of the KCNQ family) (Homo sapiens, UniProt O43525+O43526).
T1 construct: expressed in transfected cells; host or cells: HEK-293, stably transfected
T1 sequence (O43526 whole entry): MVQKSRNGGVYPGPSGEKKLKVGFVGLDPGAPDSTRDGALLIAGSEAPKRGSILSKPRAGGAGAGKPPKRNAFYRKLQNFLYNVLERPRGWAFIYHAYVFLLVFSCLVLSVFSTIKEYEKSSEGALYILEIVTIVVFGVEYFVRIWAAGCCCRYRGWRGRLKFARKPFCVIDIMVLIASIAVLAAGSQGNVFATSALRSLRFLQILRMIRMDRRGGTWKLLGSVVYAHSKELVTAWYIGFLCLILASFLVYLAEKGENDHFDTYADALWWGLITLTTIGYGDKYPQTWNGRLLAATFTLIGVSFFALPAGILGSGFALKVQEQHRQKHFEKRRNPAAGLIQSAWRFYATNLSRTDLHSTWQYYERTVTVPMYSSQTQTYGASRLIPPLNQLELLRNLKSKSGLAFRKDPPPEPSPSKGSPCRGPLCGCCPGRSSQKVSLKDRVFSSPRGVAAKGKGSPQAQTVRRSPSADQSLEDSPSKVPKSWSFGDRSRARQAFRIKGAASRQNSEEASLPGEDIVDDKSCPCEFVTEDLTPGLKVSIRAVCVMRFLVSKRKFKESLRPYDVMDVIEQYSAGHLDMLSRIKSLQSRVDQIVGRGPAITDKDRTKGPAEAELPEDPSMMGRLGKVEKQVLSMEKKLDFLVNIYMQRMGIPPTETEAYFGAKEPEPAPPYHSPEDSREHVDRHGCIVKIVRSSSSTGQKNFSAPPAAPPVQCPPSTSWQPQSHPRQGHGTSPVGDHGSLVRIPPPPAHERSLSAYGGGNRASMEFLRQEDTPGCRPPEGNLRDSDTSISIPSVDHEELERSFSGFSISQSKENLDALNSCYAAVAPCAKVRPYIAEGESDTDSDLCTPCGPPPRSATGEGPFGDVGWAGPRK
T1 sequence (O43525 whole entry): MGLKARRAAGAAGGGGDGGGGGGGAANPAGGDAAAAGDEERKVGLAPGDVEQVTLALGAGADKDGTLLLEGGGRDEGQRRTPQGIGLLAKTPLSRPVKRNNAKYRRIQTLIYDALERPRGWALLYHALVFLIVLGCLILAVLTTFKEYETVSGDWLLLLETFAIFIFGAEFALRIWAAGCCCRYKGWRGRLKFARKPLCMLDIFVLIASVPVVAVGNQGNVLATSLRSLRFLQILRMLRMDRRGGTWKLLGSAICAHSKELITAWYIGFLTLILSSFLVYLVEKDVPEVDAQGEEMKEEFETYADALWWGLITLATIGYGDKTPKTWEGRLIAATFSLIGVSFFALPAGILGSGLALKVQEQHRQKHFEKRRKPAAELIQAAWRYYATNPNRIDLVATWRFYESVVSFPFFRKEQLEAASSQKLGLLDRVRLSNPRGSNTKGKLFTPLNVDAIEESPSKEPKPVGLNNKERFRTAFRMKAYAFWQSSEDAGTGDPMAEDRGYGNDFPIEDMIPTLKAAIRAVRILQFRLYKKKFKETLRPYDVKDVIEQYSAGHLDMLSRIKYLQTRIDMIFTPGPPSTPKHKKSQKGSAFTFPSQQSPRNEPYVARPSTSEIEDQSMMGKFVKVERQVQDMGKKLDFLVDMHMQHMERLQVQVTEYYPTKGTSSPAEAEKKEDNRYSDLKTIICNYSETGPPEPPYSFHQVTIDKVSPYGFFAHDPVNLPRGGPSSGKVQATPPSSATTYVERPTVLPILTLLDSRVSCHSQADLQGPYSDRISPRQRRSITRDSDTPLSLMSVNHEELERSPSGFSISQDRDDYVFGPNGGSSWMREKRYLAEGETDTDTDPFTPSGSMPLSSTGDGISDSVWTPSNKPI
Description: Thallium flux assay for KCNQ channel blockers (FLIPR, BTC dye). The assay is classed as cell-based. The conditions noted are these: Table 2; thallium flux, HEK-293. Put shortly: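 FLIPR thallium flux readout (BTC dye, 2 μM AM ester) in stably transfected KCNQ HEK-293 cells, chloride-free HEPES buffer pH 7.3, Tl2SO4 stimulus. IC50s were fitted with a single-site logistic equation across 10 points at 1:3 dilutions, defined as 50% of positive-control block; minimal active concentration meant signal ≥4 SD over DMSO controls.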
As for `CC1CCN(c2ncc(C(=O)NCc3cc(F)cc(C(F)(F)F)c3)c(C3(c4ccccc4)CC3)n2)CC1` [Example 48, 5-pyrimidinecarboxamide, N-[[3-fluoro-5-(trifluoromethyl)phenyl]methyl]-2-(4-methyl-1-piperidinyl)-4-(1-phenylcyclopropyl)-], the half-maximal effective concentration (EC50) – broadly, the concentration giving half of the maximal effect – stood at 297 nM.

Turning to `CC1CCC(Nc2ncc(C(=O)N[C@H](C)c3cccc4ccccc34)c(C3(c4ccccc4)CC3)n2)CC1` (stereo partly drawn) [Example 33, 5-pyrimidinecarboxamide, 2-[(4-methylcyclohexyl)amino]-N-[(1R)-1-(1-naphthalenyl)ethyl]-4-(1-phenylcyclopropyl)-], the EC50 was found to be 293 nM.

The assay is the same for the next values; noted with them: hQ23 cells, thallium flux.
Turning to `CN1CCN(c2ncc(C(=O)NCc3cccc4ccccc34)c(C3(c4ccc(Cl)cc4)CCCC3)n2)CC1` [Example 168, 5-pyrimidinecarboxamide, 4-[1-(4-chlorophenyl)cyclopentyl]-2-(4-methyl-1-piperazinyl)-N-(1-naphthalenylmethyl)-], the EC50 came out at 497 nM.

The compound `CN(CCc1ccccc1)C(=O)c1cnc(N2CCCC2)nc1C1(c2ccc(Cl)cc2)CCCC1` [Example 147, 5-pyrimidinecarboxamide, 4-[1-(4-chlorophenyl)cyclopentyl]-N-methyl-N-(2-phenylethyl)-2-(1-pyrrolidinyl)-] yielded an EC50 of 169 nM.

In turn, `CC(NC(=O)c1cnc(NC2CCCC2)nc1C1(c2ccc(Cl)cc2)CCCC1)c1cccc2ccccc12` (stereo not shown) [Example 164, 5-pyrimidinecarboxamide, 4-[1-(4-chlorophenyl)cyclopentyl]-2-(cyclopentylamino)-N-[1-(1-naphthalenyl)ethyl]-] returned an EC50 of 10 nM.

Compound `CCC(C)Nc1ncc(C(=O)NCc2ccc(Cl)cc2Cl)c(C2(c3ccc(Cl)cc3)CCCC2)n1` (stereo not shown) [Example 183, 5-pyrimidinecarboxamide, 4-[1-(4-chlorophenyl)cyclopentyl]-N-[(2,4-dichlorophenyl)methyl]-2-[(1-methylpropyl)amino]-] showed an EC50 of 10 nM.

In turn, `CC1CCCN(c2ncc(C(=O)NCc3ccc4c(c3)OCO4)c(C3(c4ccc(Cl)cc4)CCCC3)n2)C1` (stereo not shown) [Example 153, 5-pyrimidinecarboxamide, N-(1,3-benzodioxol-5-ylmethyl)-4-[1-(4-chlorophenyl)cyclopentyl]-2-(3-methyl-1-piperidinyl)-] displayed an EC50 of 10 nM.

For the compound `O=C(NCc1cc(F)cc(C(F)(F)F)c1)c1cnc(NC2CC2)nc1C1(c2ccccc2)CCCC1` [Example 122, 5-pyrimidinecarboxamide, 2-(cyclopropylamino)-N-[[3-fluoro-5-(trifluoromethyl)phenyl]methyl]-4-(1-phenylcyclopentyl)-], the EC50 was found to be 10 nM.

As for `CC1CCN(c2ncc(C(=O)NCc3cccc4ccccc34)c(C3(c4ccc(Cl)cc4)CCCC3)n2)CC1` [Example 170, 5-pyrimidinecarboxamide, 4-[1-(4-chlorophenyl)cyclopentyl]-2-(4-methyl-1-piperidinyl)-N-(1-naphthalenylmethyl)-], the response was half-maximal at 10 nM (EC50).

On to `CC1CCCN(c2ncc(C(=O)NCc3ccc(F)cc3F)c(C3(c4ccccc4)CCCC3)n2)C1` (stereo not shown) [Example 118, 5-pyrimidinecarboxamide, N-[(2,4-difluorophenyl)methyl]-2-(3-methyl-1-piperidinyl)-4-(1-phenylcyclopentyl)-], for which a half-maximal response (EC50) required 37 nM.

Regarding `O=C(NCc1ccc(Cl)cc1Cl)c1cnc(N2CCCC2)nc1C1(c2ccc(Cl)cc2)CCCC1` [Example 178, 5-pyrimidinecarboxamide, 4-[1-(4-chlorophenyl)cyclopentyl]-N-[(2,4-dichlorophenyl)methyl]-2-(1-pyrrolidinyl)-], the EC50 worked out at 74 nM.

The compound `CC1CCN(c2ncc(C(=O)N(C)CCc3ccccc3)c(C3(c4ccccc4)CCCC3)n2)CC1` [Example 81, 5-pyrimidinecarboxamide, N-methyl-2-(4-methyl-1-piperidinyl)-4-(1-phenylcyclopentyl)-N-(2-phenylethyl)-] had an EC50 of 437 nM.

Consider `CC1CCN(c2ncc(C(=O)N(C)Cc3ccccc3)c(C3(c4ccc(F)cc4)CCCC3)n2)CC1` [Example 206, 5-pyrimidinecarboxamide, 4-[1-(4-fluorophenyl)cyclopentyl]-N-methyl-2-(4-methyl-1-piperidinyl)-N-(phenylmethyl)-], for which the EC50 is 261 nM.

In turn, `CC(NC(=O)c1cnc(NC2CC2)nc1C1(c2ccc(Cl)cc2)CCCC1)c1cccc2ccccc12` (stereo not shown) [Example 157, 5-pyrimidinecarboxamide, 4-[1-(4-chlorophenyl)cyclopentyl]-2-(cyclopropylamino)-N-[1-(1-naphthalenyl)ethyl]-] returned an EC50 of 195 nM.

`CC1CCCN(C(=O)c2cnc(NC3CC3)nc2C2(c3ccc(Cl)cc3)CCCC2)C1` (stereo not shown) [Example 144, piperidine, 1-[[4-[1-(4-chlorophenyl)cyclopentyl]-2-(cyclopropylamino)-5-pyrimidinyl]carbonyl]-3-methyl-] gave an EC50 of 884 nM.

Still in this assay, the particulars now being: hQ23 cells, thallium flux assay.
Regarding `CC1CCC(Nc2ncc(C(=O)NCc3ccc(Cl)cc3Cl)c(C3(c4ccc(F)cc4)CCCC3)n2)CC1` (stereo not shown) [Example 260, 5-pyrimidinecarboxamide, N-[(2,4-dichlorophenyl)methyl]-4-[1-(4-fluorophenyl)cyclopentyl]-2-[(4-methylcyclohexyl)amino]-], the EC50 amounted to 10 nM.

On to `CC1CCCN(c2ncc(C(=O)NCc3ccc(F)cc3F)c(C3(c4ccc(F)cc4)CCCC3)n2)C1` (stereo not shown) [Example 269, 5-pyrimidinecarboxamide, N-[(2,4-difluorophenyl)methyl]-4-[1-(4-fluorophenyl)cyclopentyl]-2-(3-methyl-1-piperidinyl)-], for which the EC50 turned out to be 56 nM.

Compound `CCC(C)Nc1ncc(C(=O)NCc2ccc3c(c2)OCO3)c(C2(c3ccc(F)cc3)CCCC2)n1` (stereo not shown) [Example 238, 5-pyrimidinecarboxamide, N-(1,3-benzodioxol-5-ylmethyl)-4-[1-(4-fluorophenyl)cyclopentyl]-2-[(1-methylpropyl)amino]-] displayed an EC50 of 344 nM.

In the case of `CC1CCC(Nc2ncc(C(=O)NCc3ccc4c(c3)OCO4)c(C3(c4ccc(F)cc4)CCCC3)n2)CC1` (stereo not shown) [Example 234, 5-pyrimidinecarboxamide, N-(1,3-benzodioxol-5-ylmethyl)-4-[1-(4-fluorophenyl)cyclopentyl]-2-[(4-methylcyclohexyl)amino]-], the EC50 came out at 235 nM.

`CC1CCN(c2ncc(C(=O)NC(C)c3cccc4ccccc34)c(C3(c4ccc(F)cc4)CCCC3)n2)CC1` (stereo not shown) [Example 245, 5-pyrimidinecarboxamide, 4-[1-(4-fluorophenyl)cyclopentyl]-2-(4-methyl-1-piperidinyl)-N-[1-(1-naphthalenyl)ethyl]-] returned an EC50 of 10 nM.

Regarding `CCC(C)Nc1ncc(C(=O)NCc2cc(F)cc(C(F)(F)F)c2)c(C2(c3ccc(F)cc3)CCCC2)n1` (stereo not shown) [Example 279, 5-pyrimidinecarboxamide, 4-[1-(4-fluorophenyl)cyclopentyl]-N-[[3-fluoro-5-(trifluoromethyl)phenyl]methyl]-2-[(1-methylpropyl)amino]-], the EC50 amounted to 55 nM.

Take `CC(NC(=O)c1cnc(NC2CCCC2)nc1C1(c2ccc(F)cc2)CCCC1)c1ccc(F)cc1` (stereo not shown) [Example 287, 5-pyrimidinecarboxamide, 2-(cyclopentylamino)-4-[1-(4-fluorophenyl)cyclopentyl]-N-[1-(4-fluorophenyl)ethyl]-]: a half-maximal effect (EC50) was put at 573 nM.
